Patent US20090298834A1, “4-(AMINOMETHYL)CYCLOHEXANAMINE DERIVATIVES AS CALCIUM CHANNEL BLOCKERS” (priority 2008, published 2009)

Target: T1, human α1G T-type channels (Homo sapiens, UniProt O43497)
T1 construct: expressed in transfected cells; host or cells: HEK 293
Assay: T-type calcium channel block, whole cell patch clamp (α1G)
Format: cell-based
Conditions: HEK cells stably expressing human α1G; mainly non-inactivated protocol; values above 10 μM represented as 10 μM, values below 0.30 μM represented as 0.30 μM
Description: (§1) T-type calcium channel blocking activity was assayed in human embryonic kidney cells, HEK 293, stably transfected with the T-type calcium channel subunits. Briefly, cells were cultured in Dulbecco's modified eagle medium (DMEM) supplemented with 10% fetal bovine serum, 200 U/ml penicillin and 0.2 mg/ml streptomycin at 37° C. with 5% CO2. At 85% confluency cells were split with 0.25% trypsin/1 mM EDTA and plated at 10% confluency on glass coverslips. At 12 hours the medium was replaced and the cells stably transfected using a standard calcium phosphate protocol and the appropriate calcium channel cDNA's. Fresh DMEM was supplied and the cells transferred to 28° C./5% CO2. Cells were incubated for 1 to 2 days prior to whole cell recording.
(§2) Standard patch-clamp techniques were employed to identify blockers of T-type currents. Briefly, previously described HEK cell lines stably expressing human α1G, α1H and α1I T-type channels were used for all the recordings (passage #: 4-20, 37° C., 5% CO2). Whole cell patch clamp experiments were performed using an Axopatch 200B amplifier (Axon Instruments, Burlingame, Calif.) linked to a personal computer equipped with pCLAMP software. Data were analyzed using Clampfit (Axon Instruments) and SigmaPlot 4.0 (Jandel Scientific). To obtain T-type currents, plastic dishes containing semi-confluent cells were positioned on the stage of a ZEISS AXIOVERT S100 microscope after replacing the culture medium with external solution (see below). Whole-cell patches were obtained using pipettes (borosilicate glass with filament, O.D.: 1.5 mm, I.D.: 0.86 mm, 10 cm length), fabricated on a SUTTER P-97 puller with resistance values of ˜5 MΩ (see below for internal solution).
(§3) In the non-inactivating protocol, the holding potential is set at −110 mV and with a pre-pulse at −100 mV for 1 second prior to the test pulse at −40 mV for 50 ms. In the inactivation protocol, the pre-pulse is at approximately −85 mV for 1 second, which inactivates about 15% of the T-type channels.
(§4) Test compounds were dissolved in external solution, 0.1-0.01% DMSO. After 10 min rest, they were applied by gravity close to the cell using a WPI microfil tubing. The “non-inactivated” pre-pulse was used to examine the resting block of a compound. The “inactivated” protocol was employed to study voltage-dependent block. However, the initial data shown below were mainly obtained using the non-inactivated protocol only. . IC50 values are shown for various compounds of the invention in Table 4 for the drug of interest. Values are shown in μM and values above 10 μM are simply represented as 10 μM.

T1 sequence (O43497 whole entry): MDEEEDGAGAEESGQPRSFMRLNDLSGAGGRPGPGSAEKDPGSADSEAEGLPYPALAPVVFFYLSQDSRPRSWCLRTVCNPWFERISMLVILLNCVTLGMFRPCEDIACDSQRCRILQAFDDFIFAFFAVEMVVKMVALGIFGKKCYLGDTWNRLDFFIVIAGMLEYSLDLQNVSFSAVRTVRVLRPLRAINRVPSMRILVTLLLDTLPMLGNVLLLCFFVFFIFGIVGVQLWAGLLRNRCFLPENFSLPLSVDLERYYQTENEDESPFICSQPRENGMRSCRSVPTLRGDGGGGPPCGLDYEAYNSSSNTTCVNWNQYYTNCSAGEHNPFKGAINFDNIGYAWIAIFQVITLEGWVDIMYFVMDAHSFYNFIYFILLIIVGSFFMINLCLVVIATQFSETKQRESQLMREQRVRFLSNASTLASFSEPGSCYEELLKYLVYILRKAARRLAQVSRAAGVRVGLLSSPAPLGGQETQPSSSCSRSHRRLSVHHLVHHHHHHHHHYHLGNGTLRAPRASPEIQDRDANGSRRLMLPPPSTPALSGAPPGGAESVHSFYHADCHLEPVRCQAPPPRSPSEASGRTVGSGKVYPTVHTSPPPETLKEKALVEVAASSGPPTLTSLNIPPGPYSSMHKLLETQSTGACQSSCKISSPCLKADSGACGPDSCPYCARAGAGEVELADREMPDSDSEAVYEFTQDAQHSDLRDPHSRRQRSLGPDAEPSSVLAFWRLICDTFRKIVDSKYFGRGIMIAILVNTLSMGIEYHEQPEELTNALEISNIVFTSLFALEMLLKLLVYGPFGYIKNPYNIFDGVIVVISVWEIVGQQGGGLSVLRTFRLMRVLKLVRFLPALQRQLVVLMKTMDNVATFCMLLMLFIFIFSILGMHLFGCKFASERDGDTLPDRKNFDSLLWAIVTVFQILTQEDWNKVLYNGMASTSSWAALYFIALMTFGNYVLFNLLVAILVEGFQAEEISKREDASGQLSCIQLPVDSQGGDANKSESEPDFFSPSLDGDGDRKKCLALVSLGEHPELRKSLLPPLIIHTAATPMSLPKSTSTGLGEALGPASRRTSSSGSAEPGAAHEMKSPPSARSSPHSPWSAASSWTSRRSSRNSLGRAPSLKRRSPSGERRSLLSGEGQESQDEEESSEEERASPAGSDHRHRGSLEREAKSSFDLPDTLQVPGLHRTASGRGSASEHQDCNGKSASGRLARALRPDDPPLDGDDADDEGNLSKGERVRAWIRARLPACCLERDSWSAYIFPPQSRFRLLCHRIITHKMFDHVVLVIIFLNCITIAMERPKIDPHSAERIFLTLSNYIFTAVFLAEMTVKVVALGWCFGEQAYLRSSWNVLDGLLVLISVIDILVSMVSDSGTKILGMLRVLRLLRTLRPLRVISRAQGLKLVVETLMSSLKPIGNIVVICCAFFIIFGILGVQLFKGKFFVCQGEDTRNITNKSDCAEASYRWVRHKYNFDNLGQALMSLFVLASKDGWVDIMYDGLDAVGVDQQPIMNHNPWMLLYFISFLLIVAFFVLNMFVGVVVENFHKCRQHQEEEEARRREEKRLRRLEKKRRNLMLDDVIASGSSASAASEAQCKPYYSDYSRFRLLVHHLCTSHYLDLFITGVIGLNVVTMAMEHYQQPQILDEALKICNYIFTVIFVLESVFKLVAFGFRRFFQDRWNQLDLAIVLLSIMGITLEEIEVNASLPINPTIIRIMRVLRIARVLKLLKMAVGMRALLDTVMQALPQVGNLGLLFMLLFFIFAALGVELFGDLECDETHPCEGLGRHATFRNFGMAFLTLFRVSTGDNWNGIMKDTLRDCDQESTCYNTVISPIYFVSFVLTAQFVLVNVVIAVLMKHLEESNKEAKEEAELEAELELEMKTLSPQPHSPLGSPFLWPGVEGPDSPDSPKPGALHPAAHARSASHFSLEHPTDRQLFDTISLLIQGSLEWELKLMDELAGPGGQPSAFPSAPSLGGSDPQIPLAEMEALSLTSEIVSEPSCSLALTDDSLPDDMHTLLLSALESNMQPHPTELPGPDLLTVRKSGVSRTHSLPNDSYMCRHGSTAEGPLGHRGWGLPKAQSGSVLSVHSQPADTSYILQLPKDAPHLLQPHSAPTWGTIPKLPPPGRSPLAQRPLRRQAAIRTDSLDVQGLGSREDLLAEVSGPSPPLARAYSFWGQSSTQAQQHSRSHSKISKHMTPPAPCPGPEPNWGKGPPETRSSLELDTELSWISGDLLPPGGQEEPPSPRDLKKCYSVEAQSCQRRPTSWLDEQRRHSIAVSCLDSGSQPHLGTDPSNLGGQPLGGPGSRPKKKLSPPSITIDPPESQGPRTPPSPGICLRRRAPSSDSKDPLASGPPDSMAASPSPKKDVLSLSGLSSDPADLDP

IC50 [µM]	Compound
6.11	N[C@H]1CC[C@@H](CC(=O)Nc2cc(C(F)(F)F)cc(C(F)(F)F)c2)CC1 [Compound 106, 2-(cis-4-aminocyclohexyl)-N-(3,5-bis(trifluoromethyl)phenyl)acetamide]
≥ 10	NC1(C(=O)N[C@H]2CC[C@@H](CC(=O)NCc3cccc(OC(F)(F)F)c3)CC2)CCCCC1 [Compound 109, 1-amino-N-(cis-4-(2-oxo-2-(3-(trifluoromethoxy)benzylamino)ethyl)cyclohexyl)cyclohexanecarboxamide]
4.89	O=C(C[C@H]1CC[C@H](NC(=O)[C@H]2CCCN2)CC1)Nc1cc(C(F)(F)F)cc(C(F)(F)F)c1 [Compound 118, (R)-N-(trans-4-(2-(3,5-bis(trifluoromethyl)phenylamino)-2-oxoethyl)cyclohexyl)pyrrolidine-2-carboxamide]
4.44	O=C(C[C@H]1CC[C@H](NC(=O)[C@@H]2CCCCN2)CC1)Nc1cc(C(F)(F)F)cc(C(F)(F)F)c1 [Compound 120, (S)-N-(trans-4-(2-(3,5-bis(trifluoromethyl)phenylamino)-2-oxoethyl)cyclohexyl)piperidine-2-carboxamide]
5.29	Cc1ccc(-c2csc(NC(=O)C[C@H]3CC[C@@H](NC(=O)[C@@H]4C[C@@H](c5ccccc5)CN4)CC3)n2)cc1 [Compound 129, (2S,4S)-N-(cis-4-(2-oxo-2-(4-p-tolylthiazol-2-ylamino)ethyl)cyclohexyl)-4-phenylpyrrolidine-2-carboxamide]
4.11	Cc1ccc(-c2csc(NC(=O)C[C@H]3CC[C@@H](NC(=O)[C@@H]4C[C@H](c5ccccc5)CN4)CC3)n2)cc1 [Compound 130, (2S,4R)-N-(cis-4-(2-oxo-2-(4-p-tolylthiazol-2-ylamino)ethyl)cyclohexyl)-4-phenylpyrrolidine-2-carboxamide]
7.56	Cc1ccc(-c2csc(NC(=O)C[C@H]3CC[C@@H](NC(=O)[C@@H]4CC[C@H](c5ccccc5)N4)CC3)n2)cc1 [Compound 131]
4.88	Cc1ccc(-c2csc(NC(=O)C[C@H]3CC[C@@H](NC(=O)[C@H]4CC[C@@H](c5ccccc5)N4)CC3)n2)cc1 [Compound 138, (2R,5S)-N-(cis-4-(2-oxo-2-(4-p-tolylthiazol-2-ylamino)ethyl)cyclohexyl)-5-phenylpyrrolidine-2-carboxamide]
9.67	NC1(C(=O)N[C@H]2CC[C@@H](CNC(=O)c3cc(C(F)(F)F)cc(C(F)(F)F)c3)CC2)CCCC1 [Compound 140, N-((cis-4-(1-aminocyclopentanecarboxamido)cyclohexyl)methyl)-3,5-bis(trifluoromethyl)benzamide]
≥ 10	NC1(C(=O)N[C@H]2CC[C@@H](CNC(=O)c3cc(F)cc(C(F)(F)F)c3)CC2)CCCC1 [Compound 141, N-((cis-4-(1-aminocyclopentanecarboxamido)cyclohexyl)methyl)-3-fluoro-5-(trifluoromethyl)benzamide]
≥ 10	NC1(C(=O)N[C@H]2CC[C@H](CNC(=O)c3cc(C(F)(F)F)cc(C(F)(F)F)c3)CC2)CCCC1 [Compound 142, N-((trans-4-(1-aminocyclopentanecarboxamido)cyclohexyl)methyl)-3,5-bis(trifluoromethyl)benzamide]
3.82	O=C(C[C@H]1CC[C@@H](NC(=O)C2CCNCC2)CC1)Nc1cc(C(F)(F)F)cc(C(F)(F)F)c1 [Compound 144, N-(cis-4-(2-(3,5-bis(trifluoromethyl)phenylamino)-2-oxoethyl)cyclohexyl)piperidine-4-carboxamide]
7.6	O=C(C[C@H]1CC[C@@H](NC(=O)[C@H]2C[C@H](O)CN2)CC1)Nc1cc(C(F)(F)F)cc(C(F)(F)F)c1 [Compound 145]
4.59	NC1(C(=O)N[C@H]2CC[C@@H](CC(=O)Nc3cc(C(F)(F)F)cc(C(F)(F)F)c3)CC2)CCOCC1 [Compound 147, 4-amino-N-(cis-4-(2-(3,5-bis(trifluoromethyl)phenylamino)-2-oxoethyl)cyclohexyl)tetrahydro-2H-pyran-4-carboxamide]
2.94	O=C(C[C@H]1CC[C@@H](NC(=O)C2(O)CCNCC2)CC1)Nc1cc(C(F)(F)F)cc(C(F)(F)F)c1 [Compound 148, N-(cis-4-(2-(3,5-bis(trifluoromethyl)phenylamino)-2-oxoethyl)cyclohexyl)-4-hydroxypipendine-4-carboxamide]
4.07	NC1(C(=O)N[C@H]2CC[C@@H](CC(=O)Nc3cc(C(F)(F)F)cc(C(F)(F)F)c3)CC2)CC1 [Compound 149, 1-amino-N-(cis-4-(2-(3,5-bis(trifluoromethyl)phenylamino)-2-oxoethyl)cyclohexyl)cyclopropanecarboxamide]
2.65	O=C(NC[C@H]1CC[C@H](NCCNS(=O)(=O)C(F)(F)F)CC1)c1cc(C(F)(F)F)cc(C(F)(F)F)c1 [Compound 155, 3,5-bis(trifluoromethyl)-N-((trans-4-(2-(trifluoromethylsulfonamido)ethylamino)cyclohexyl)methyl)benzamide]
≥ 10	O=C(NC[C@H]1CC[C@@H](NCCNS(=O)(=O)C(F)(F)F)CC1)c1cc(F)cc(C(F)(F)F)c1 [Compound 156, 3-fluoro-5-(trifluoromethyl)-N-((cis-4-(2-(trifluoromethylsulfonamido)ethylamino)cyclohexyl)methyl)benzamide]

Compound	IC50 [µM]
O=C(C[C@H]1CC[C@@H](NC(=O)C2(c3ccccc3)CCNCC2)CC1)NCc1cccc(OC(F)(F)F)c1 [Compound 114, N-(cis-4-(2-oxo-2-(3-(trifluoromethoxy)benzylamino)ethyl)cyclohexyl)-4-phenylpiperidin-4-carboxamide]	≥ 10
O=C(NC[C@H]1CC[C@@H](NC(=O)C2(c3ccccc3)CCNCC2)CC1)c1cc(C(F)(F)F)cc(C(F)(F)F)c1 [Compound 128, N-(cis-4-((3,5-bis(trifluoromethyl)benzamido)methyl)cyclohexyl)-4-phenylpiperidine-4-carboxamide]	5.78
O=C(NC[C@H]1CC[C@H](NC(=O)C2(c3ccccc3)CCNCC2)CC1)c1cc(C(F)(F)F)cc(C(F)(F)F)c1 [Compound 136, N-(trans-4-((3,5-bis(trifluoromethyl)benzamido)methyl)cyclohexyl)-4-phenylpiperidine-4-carboxamide]	3.81

Target: T2, human α1H T-type channels (Homo sapiens, UniProt O95180)
T2 construct: expressed in transfected cells; host or cells: HEK 293
Assay: T-type calcium channel block, whole cell patch clamp (α1H)
Format: cell-based
Conditions: HEK cells stably expressing human α1H; mainly non-inactivated protocol; values above 10 μM represented as 10 μM
Description: as §1, §2, §3, §4

T2 sequence (O95180 whole entry): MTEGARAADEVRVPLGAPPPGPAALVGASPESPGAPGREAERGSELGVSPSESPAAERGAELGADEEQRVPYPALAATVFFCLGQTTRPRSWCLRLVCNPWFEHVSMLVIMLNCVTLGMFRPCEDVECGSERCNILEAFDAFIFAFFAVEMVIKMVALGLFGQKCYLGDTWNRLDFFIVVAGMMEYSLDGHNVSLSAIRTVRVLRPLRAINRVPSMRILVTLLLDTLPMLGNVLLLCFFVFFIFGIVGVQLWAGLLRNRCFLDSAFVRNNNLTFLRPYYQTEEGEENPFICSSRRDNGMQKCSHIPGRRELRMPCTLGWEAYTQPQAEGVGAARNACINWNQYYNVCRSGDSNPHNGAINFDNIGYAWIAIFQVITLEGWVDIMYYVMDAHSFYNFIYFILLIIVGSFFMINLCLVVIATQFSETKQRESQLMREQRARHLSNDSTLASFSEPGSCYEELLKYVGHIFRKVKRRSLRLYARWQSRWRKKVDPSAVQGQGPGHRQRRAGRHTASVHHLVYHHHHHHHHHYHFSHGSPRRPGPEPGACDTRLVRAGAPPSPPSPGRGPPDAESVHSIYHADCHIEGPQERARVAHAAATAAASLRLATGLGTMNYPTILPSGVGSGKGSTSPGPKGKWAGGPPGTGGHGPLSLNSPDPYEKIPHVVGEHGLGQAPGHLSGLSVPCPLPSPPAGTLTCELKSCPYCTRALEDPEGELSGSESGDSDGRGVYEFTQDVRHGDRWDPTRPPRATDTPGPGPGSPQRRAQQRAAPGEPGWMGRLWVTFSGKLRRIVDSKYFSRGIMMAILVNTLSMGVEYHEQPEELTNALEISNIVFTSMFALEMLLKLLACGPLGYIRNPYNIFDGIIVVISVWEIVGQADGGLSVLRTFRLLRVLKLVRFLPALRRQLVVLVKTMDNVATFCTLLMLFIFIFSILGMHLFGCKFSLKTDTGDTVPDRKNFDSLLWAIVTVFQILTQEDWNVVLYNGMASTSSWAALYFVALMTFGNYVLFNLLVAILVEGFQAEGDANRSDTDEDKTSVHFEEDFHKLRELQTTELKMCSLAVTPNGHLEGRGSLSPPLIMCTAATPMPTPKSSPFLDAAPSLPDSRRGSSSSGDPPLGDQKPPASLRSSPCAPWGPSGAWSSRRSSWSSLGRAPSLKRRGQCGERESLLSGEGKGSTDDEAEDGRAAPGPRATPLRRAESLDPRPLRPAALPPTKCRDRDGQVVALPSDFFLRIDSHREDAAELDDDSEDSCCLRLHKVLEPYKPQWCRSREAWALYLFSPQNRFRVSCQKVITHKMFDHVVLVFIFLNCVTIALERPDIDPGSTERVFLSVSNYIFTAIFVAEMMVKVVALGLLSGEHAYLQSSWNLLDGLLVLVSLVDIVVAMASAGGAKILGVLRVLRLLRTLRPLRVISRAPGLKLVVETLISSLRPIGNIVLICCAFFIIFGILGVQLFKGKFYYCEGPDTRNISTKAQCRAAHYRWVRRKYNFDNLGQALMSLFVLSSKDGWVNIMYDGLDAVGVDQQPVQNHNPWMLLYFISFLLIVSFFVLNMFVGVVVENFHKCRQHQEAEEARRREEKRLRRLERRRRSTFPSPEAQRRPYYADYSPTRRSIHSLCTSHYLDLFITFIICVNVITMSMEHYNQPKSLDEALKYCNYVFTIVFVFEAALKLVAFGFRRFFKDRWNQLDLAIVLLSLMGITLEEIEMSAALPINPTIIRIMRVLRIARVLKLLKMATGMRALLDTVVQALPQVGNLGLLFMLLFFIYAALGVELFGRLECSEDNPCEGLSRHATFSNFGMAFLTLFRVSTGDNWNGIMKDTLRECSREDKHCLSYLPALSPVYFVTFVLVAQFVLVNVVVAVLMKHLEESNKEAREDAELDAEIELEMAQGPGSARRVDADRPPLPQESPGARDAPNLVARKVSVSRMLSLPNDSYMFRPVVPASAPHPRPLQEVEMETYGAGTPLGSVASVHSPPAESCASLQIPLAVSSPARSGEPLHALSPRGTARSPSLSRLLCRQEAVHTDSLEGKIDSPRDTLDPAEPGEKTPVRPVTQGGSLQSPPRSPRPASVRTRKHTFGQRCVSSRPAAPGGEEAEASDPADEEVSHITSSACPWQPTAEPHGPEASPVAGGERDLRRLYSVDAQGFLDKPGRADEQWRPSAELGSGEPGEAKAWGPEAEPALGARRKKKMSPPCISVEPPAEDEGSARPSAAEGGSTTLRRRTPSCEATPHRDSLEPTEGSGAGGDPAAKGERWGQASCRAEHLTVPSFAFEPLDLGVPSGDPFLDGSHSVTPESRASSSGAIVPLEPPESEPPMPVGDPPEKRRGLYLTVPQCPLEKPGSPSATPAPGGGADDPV

IC50 [nM]	Compound
250	Cc1cc(CN[C@H]2CC[C@@H](CNC(=O)c3cc(F)cc(C(F)(F)F)c3)CC2)cc(C)c1O [Compound 5, 3-fluoro-N-((cis-4-(4-hydroxy-3,5-dimethylbenzylamino)cyclohexyl)methyl)-5-(trifluoromethyl)benzamide]
280	CC(C)(C)OC(=O)NC1(CN[C@H]2CC[C@@H](CNC(=O)c3cc(C(F)(F)F)cc(C(F)(F)F)c3)CC2)CCCC1 [Compound 6, tert-butyl 1-((cis-4-((3,5-bis(trifluoromethyl)benzamido)methyl)cyclohexylamino)methyl)cyclopentylcarbamate]
2240	Cc1cccc(CN[C@H]2CC[C@H](CNC(=O)c3cc(C(F)(F)F)cc(C(F)(F)F)c3)CC2)c1O [Compound 28, N-((trans-4-(2-hydroxy-3-methylbenzylamino)cyclohexyl)methyl)-3,5-bis(trifluoromethyl)benzamide]
≥ 10000	COc1ccc(CN[C@H]2CC[C@@H](CC(=O)Nc3nc(-c4ccc(C)cc4)cs3)CC2)c(O)c1 [Compound 36, 2-(cis-4-(2-hydroxy-4-methoxybenzylamino)cyclohexyl)-N-(4-p-tolylthiazol-2-yl)acetamide]
